We go through one compound from patent US20100069854A1, “Elastomeric Devices Containing Chlorhexidine/Fatty Acid Salts Made From Fatty Acids of 12 to 18 Carbons” (priority 2008, published 2010).

Each structure is given as a SMILES string.

For series [1], the system named is Candida albicans ATCC 10231. Nature of the series: Zone of inhibition assay with impregnated polyurethane foam discs. The format is cell-based. As to the method:
To evaluate antimicrobial properties of polyurethane foam samples infused with the various chlorhexidine/fatty acid salts, a zone of inhibition assay was performed. In this assay, 1.4% (w/v) of chlorhexidine acetate, chlorhexidine caprate, chlorhexidine laurate, chlorhexidine myristate, chlorhexidine palmitate and chlorhexidine stearate solutions in methanol were prepared. A supply of 8 mm discs were punched out of a sheet of polyurethane foam (Rynel medical grade polyurethane foam) with biopsy punches (Miltex Kai). Several discs were placed in each of six 50 ml centrifuge tubes. Approximately 5 ml of each of the different methanol/chlorhexidine/fatty acid salt solutions was added to each respective tube. The discs were centrifuged for 5 minutes to remove any air bubbles and soaked for 1 hr to infuse the foam discs with the respective chlorhexidine/fatty acid salt. Infused discs were transferred to clean centrifuge tubes and vacuum dried at 25° C. for 24 hrs to remove any residual solvents. Initial concentrations of salts, impregnated into the punches, were determined by dissolving the impregnated foams and by high pressure liquid chromatography (HPLC) analysis using an Agilent Eclipse XDB-CN 3u 4.6×150 mm column with initial mobile phase=65% DI water/0.2% trifluoroacetic acid (TFA): 35% Acetonitrile/0.2% TFA. Chlorhexidine absorbance was read at 253 nm and concentration was calculated via a chlorhexidine calibration curve. […] To perform the zone of inhibition assay on the impregnated polyurethane foam discs, agar plates were prepared by mixing 11 g Mueller-Hinton cation-adjusted broth and 1.5 g agarose in 500 ml DI water. The agar was autoclaved for 15 minutes at 121° C., 15 psi. 10 ml of the still hot, liquid agar was pipetted onto petri dishes. The challenge organism, Candida albicans ATCC 10231, was cultivated in Trypticase soy broth, standard microbiological growth medium (TSB). Sterile cotton swabs were dipped into the undiluted culture and the plated agar was fully inoculated with swabs. The 8 mm polyurethane foam discs were transferred daily to a freshly inoculated agar for 9 days. The zone of inhibition (ZOI) was measured using calipers. Actual ZOI was measured by subtracting the diameter of the foam (when wet) from the zone measured and dividing by 2. The results are presented in Table 6, with a graphical representation of the ZOI in FIG. 2;

Series [2] can be described thus: Rate of release of chlorhexidine/fatty acid salts from coated polyurethane tubes into DI water. Conditions: after approximately 7 days (FIG. 1). The format is physicochemical. As to the method: A solution of each respective chlorhexidine/fatty acid salt was prepared and used to infuse a sample of elastomeric material. To perform the test, individual samples, 8 cm pieces of polyurethane tube containing a colorant, were surface dip coated in respective solutions of the chlorhexidine/fatty acid salts. The solutions were prepared as follows: 8.6 g of Tecoflex (Noveon, Cleveland, Ohio) was dissolved in 174 g of Tetrahydrofuran and methanol. 5.88 g of chlorhexidine acetate, chlorhexidine laurate, chlorhexidine myristate, chlorhexidine palmitate and chlorhexidine stearate were individually dissolved into the polymer-solvent mixture. The samples were immersed into the solvent-polymer-salt mixture and then dried at room temperature, evaporating the solvent. A polymeric coating was produced on the surface of the tubes. The amounts of chlorhexidine/fatty acid salt adhered per cm of the tube was measured (Table 2) by exhaustively extracting the salt and measuring UV absorbance at 253 nm relative to controls: For each of the samples, the rate of release of chlorhexidine/fatty acid salts into an aqueous solution was determined. To perform the rate of release test, 1 cm from each of the coated polyurethane tubes, were submerged in DeIonized (DI) water and incubated at 37° C. for a period of 28 days to determine the rate of release of the salts from the respective 1 cm samples of coated polyurethane tubing. The water was collected and replaced with fresh water after approximately 2 hours. The water was again collected and replaced with fresh water after the first day and every seven days thereafter. The amount of chlorhexidine/fatty acid salt in the collected water was measured with an Agilent 8453 UV-Vis Diode Array Detector with a manual setup using a cuvette w/path length of 1 cm. Chlorhexidine absorbance was read at 253 nm and concentration was calculated via a calibration curve developed using standards of 1, 5, 10, 20, 30, 35, and 40 μg/mL chlorhexidine acetate in DI Water. The percentage of chlorhexidine/fatty acid salt released from the sample into an aqueous media (percent release) was calculated according to the following equation: Percent release=(cumulative release at that time period/initial content)*100.

As to `CCCCCCCCCC(=O)O.CCCCCCCCCC(=O)O.N=C(NCCCCCCNC(=N)NC(=N)Nc1ccc(Cl)cc1)NC(=N)Nc1ccc(Cl)cc1` [Chlorhexidine Caprate, chlorhexidine caprate], the “ZOI produced by impregnated polyurethane foam punches against Candida albicans” value in series [1] (Day 1, daily transfer to fresh agar) stood at 14 mm; in series [1] (Day 2, daily transfer to fresh agar), 18 mm; in series [1] (Day 3, daily transfer to fresh agar), 18 mm; in series [1] (Day 4, daily transfer to fresh agar), 10 mm; in series [1] (Day 7, daily transfer to fresh agar), 7 mm; in series [1] (Day 8, daily transfer to fresh agar), 9 mm. Besides, the “ZOI produced by impregnated polyurethane foam punches against Candida albicans” value in series [1] (Day 9, daily transfer to fresh agar) came to 7 mm. The “Zone of inhibition compared with the other salts (in words)” value in series [1] (impregnated polyurethane foam, after several daily transfers / over the 9 day assay) is reported as “zones of inhibition that were smaller”. Further, the “Percent release of the initial salt concentration from the coated sample” value in series [2] came out at 70%.
